Source: patent US6429208B1, “Methods and compositions for restoring impaired cellular immune function” (Regents of the University of California, priority 1992, dated 2002)

Key:
[1] = tested on: PBMC from HIV seronegative controls; assay: Proliferative response to Candida albicans, HIV seronegative controls; assay type: cell-based, human; settings: seven HIV seronegative controls; without ddAdo 6600 (±2000)
Description: (§1) Proliferative assays were done in triplicates of 50,000 PBMC in 200 μL RPMI with 10% FCS and 8 μg/ml of Candida albicans. ddAdo was added in two-fold dilutions; tritiated thymidine was added at day 5 and cells were harvested at day 6. Concentrations of ddAdo from 12.5 to 50 ng/ml gave the highest responses. […] Ratio 1:12 gave 48% (±12) without and 76% (±9) with ddAdo during priming. Ratio 1:25 gave 61% (±15) without and 77% (±9) with ddAdo.

[2] = tested on: PBMC from HIV seropositive subjects; assay: Proliferative response to Candida albicans, PBMC from HIV seropositive subjects; assay type: cell-based, human
Description: as §1

[3] = tested on: PBMC from HIV seropositive donors; assay: Immunoglobulin / anti-HIV antibody production by PBMC from HIV seropositive donors; assay type: cell-based, human; settings: 10 days
Description: Immunoglobulin production by B-cells is regulated by T-cells; CD4 provides “help” for de novo synthesis and CD8 suppresses immunoglobulin production. In HIV infection, increased total immunoglobulin production with a decrease in certain specific HIV antibodies to HIV GAG proteins during infection is a common finding (Lange, et al. AIDS (1987) 1:155-9). In this experiment, 10^6 PBMC from HIV seropositive donors were incubated in 1 ml cultures with and without ddAdo (1-100 ng/ml) for 10 days. IgG and anti-HIV antibodies in supernatant were measured by ELISA. p24 binding capacity was measured with a kit from DuPont following the manufacturer's protocol. Addition of ddAdo to cultures of PBMC from HIV seropositive subjects restored production of specific antibodies to p24 (Table 3). An effect of ddAdo on T-cells has been shown above but a possible direct effect on B-cells cannot be ruled out.
Addition of ddAdo to cultures of PBMC from HIV seropositive subjects increased spontaneous anti-p24 antibodies in individuals with none/low spontaneous production (p24 is an HIV core protein). One million PBMC from HIV seropositive donors were incubated in 1 ml cultures with and without ddAdo (1-100 ng/ml) for 10 days. IgG10 and production of anti-HIV antibodies to p24 in supernatants were measured by ELISA. p24 binding capacity was measured with a kit from DuPont (Delaware) following the manufacturer's protocol.

[4] = Personal Communication; cited from earlier work
[5] = tested on: T lymphocyte; assay: T lymphocyte proliferative response to HIV-specific protein (p24) in HIV seropositive subjects; assay type: cell-based, human; settings: FIG. 11
Source text: FIG. 11 is a graph showing T lymphocyte proliferative response in HIV seropositive subjects to a specific recall antigen (Candida albicans) and to an HIV-specific protein (p24) before and after ddAdo treatment.

[6] = tested on: PBMC; assay: Proliferative response to PHA after preincubation with HIV components; assay type: cell-based, human; settings: HIV components 1 hour, wash, ddAdo 10 minutes, 5 of 5 experiments, FIG. 7
Description: (§2) Proliferative assays were performed as previously described (see, for example, Hofmann, B., et al., Cell Immunol (1989) 121:336-48. Briefly, one microcurie ^3H-thymidine was added to cultures 72 hours after stimulation, and after further 24 hours, all cultures were harvested on glass fiber filters with an automatic harvesting machine (Skatron, Lierbyen, Norway), and the incorporated radioactivity was measured in a liquid scintillation counter (Beckman LS 1800) after an addition of 1.5 ml scintillation fluid.
HIV components were added to PBMC for 1 hour followed by washing and then treating the cells with dideoxyadenosine (ddAdo) for 10 minutes, again followed by washing. Under these circumstances, the proliferative response to PHA could be restored (FIG. 7).

[7] = tested on: PBMC from an HIV seropositive subject; assay: Proliferative response to PHA of PBMC from HIV seropositive subjects; assay type: cell-based, human
Description: as §2

[8] = tested on: Raji cells; assay: Cytotoxic T-cell 51Cr-release assay against Raji cells; assay type: cell-based, human
Description: Cytotoxic T-cells from HIV seropositive subjects “regained” their normal ability to lyse allogenic tumor cell line in the presence of ddAdo as shown in FIG. 10B. In this experiment, ddAdo was added either during the six days of generation/priming (middle column of FIG. 10B) or during the three hour cytotoxic assay (right column of FIG. 10B). The cytotoxic assay used was a standard assay. Briefly, 10^6 PBMC were primed and irradiated (3000 Rad) Raji B-lymphoblastoid cells (8:1 ratio) for six days and added to triplicates of ^51Cr-labeled target Raji cells in effector target ratios from 6.25 to 50. ^51Cr released to the supernatant was measured in a gamma counter. Percentage of specific ^51Cr-release was calculated as 100×(released by PBMC−spontaneous release)/(maximum release with Triton X−spontaneous release). ddAdo was added in concentrations of 10 or 100 ng/ml either during priming or lysis.

C[C@H]1O[C@@H](n2cnc3c(N)ncnc32)C[C@@H]1O [ddAdo, 2′,5′ dideoxyadenosine]
Responses to Candida albicans [1]: 7600 (±1.9) cpm | Responses to Candida albicans (mean and SEM) ([2]; 14 HIV seropositive subjects, increased from 2900 (±1300)): 6100 (±1600) cpm | Responses to Candida albicans ([2]; some HIV seropositive subjects, increased from less than 1000 cpm, FIG. 10A): about 10,000 cpm | p24 Binding Capacity ([3]; Patient 1, none 0): 14 pg/mL | IgG ([3]; Patient 1, none 326): 367 µg/mL | Anti-HIV Ab ([3]; Patient 1, none .5910): .5300 OD | p24 Binding Capacity ([3]; Patient 2, none 0): 16 pg/mL | IgG ([3]; Patient 2, none 98): 89 µg/mL | Anti-HIV Ab ([3]; Patient 2, none .1320): .1940 OD | p24 Binding Capacity ([3]; Patient 3, none 0): 88 pg/mL | Anti-HIV Ab ([3]; Patient 3, none 1.1390): 1.0820 OD | IgG ([3]; Patient 3, none 366): 309 µg/mL | p24 Binding Capacity ([3]; Patient 4, none 25): 49 pg/mL | IgG ([3]; Patient 4, none 123): 142 µg/mL | Anti-HIV Ab ([3]; Patient 4, none .2000): .1640 OD | p24 Binding Capacity ([3]; Patient 5, none 41): 32 pg/mL | IgG ([3]; Patient 5, none 55): 192 µg/mL | Anti-HIV Ab ([3]; Patient 5, none .1480): .1360 OD | p24 Binding Capacity ([3]; Patient 6, none 60): 50 pg/mL | IgG ([3]; Patient 6, none 76): 80 µg/mL | Anti-HIV Ab ([3]; Patient 6, none .0330): .0330 OD | IgG ([3]; Patient 7, none 244): 145 µg/mL | p24 Binding Capacity ([3]; Patient 7, none 376): 418 pg/mL | Anti-HIV Ab ([3]; Patient 7, none .0570): .2990 OD | IgG ([3]; Patient 8, none 143): 170 µg/mL | p24 Binding Capacity ([3]; Patient 8, none 1540): 1560 pg/mL | Anti-HIV Ab ([3]; Patient 8, none .4860): .3900 OD | Antiviral effect [4]: no antiviral effect | T lymphocyte responses directed against HIV [5]: restores/increases | Proliferative response to PHA [6]: restored | Proliferative response to PHA [7]: improved | Ability of cytotoxic T-cells from HIV seropositive subjects to lyse allogenic tumor cell line ([8]; 10 or 100 ng/ml during priming or lysis, FIG. 10B): regained | Effect on target lysis by HIV seronegative cells ([8]; HIV seronegative subjects): minimal effect | Target lysis (specific ^51Cr-release) ([8]; Ratio 1:12, ddAdo during priming, without 48% (±12)): 76% | Target lysis (specific ^51Cr-release) ([8]; Ratio 1:25, without 61% (±15)): 77%
